# Results taken from patent US11111267B2 (priority 2020, dated 2021).
# pIC50: −log10 of the molar value. “Also recorded” adds a separate entry of the source. Like-named read-outs stand apart in the source and are kept apart here.
# What was measured:
# [1] = tested on: Hedgehog signaling pathway; assay: Gli luciferase reporter assay in Gli Reporter-NIH3T3 cells (mShh stimulated); assay type: cell-based; settings: mShh 1 μg/ml, 27 hours, read-out: IC50 for inhibition of the Hedgehog signaling pathway
# Description: Hedgehog signaling pathway Gli Reporter-NIH3T3 cells were cultured in DMEM medium with 10% Calf serum, 1% Penn-strep, 500 μg/ml of Geneticin.
# To perform the Gli luciferase reporter assay, Gli Reporter—NIH3T3 cells were seeded at 25,000 cells per well into white clear-bottom 96-well microplate in 100 μl of growth medium. Cells were incubated at 37° C. and 5% CO2 for overnight. Next day remove the medium from wells and add 45 μl of diluted inhibitor in assay medium (Opti-MEM Reduced Serum Medium+0.5% calf serum+1% non-essential amino acids+1 mM Na-pyruvate+10 mM HEPES+1% Pen/Strep) per well. Incubate cells at 37° C. in a CO2 incubator for 2 hours. Then add 5 μl of diluted mShh in assay medium to wells (final [mShh]=1 μg/ml). Add […] of assay medium to cell-free control wells. Cells were treated for 27 hours. […] Luminescence was measured using a luminometer (BioTek Synergy™ 2 microplate reader)
# Reporter assays in triplicate were performed at each concentration. The luminescence intensity data were analyzed using the computer software, Graphpad Prism. In the absence of the compound, the luminescence intensity (Lt) in each data set was defined as 100%. In the absence of cells, the luminescence intensity (Lb) in each data set was defined as 0%. […]
# A431 xenograft = assay type: in vivo, BALB/c nude mice
# Description: (§1) NCI-H2122 cells were cultured in RMPI1640 medium, A431 tumor cells cultured in DMEM medium, all the medium were supplemented with 10% heat inactivated fetal bovine serum, all cells used EDTA containing trypsin, passaged twice a week, incubated at 37° C. in an atmosphere of 5% CO2 in air and cultured.
# (§2) 110 BALB/c nude mice, female, 6-8 weeks old, 18-22 g in body weight, were purchased from Shanghai Laboratory Animal Center (SLAC, Shanghai, China). The mice were kept in individually ventilated cage (IVC) systems at constant temperature and humidity, with 20.5-24.5° C. for temperature, 40-75% for humidity. With 4 animals in each cage, the size ogf the cage is 325 mm×210 mm×180 mm. The bedding material is corn cob, which is changed twice per week. Animals had free access to irradiation sterilized dry granule food and water during the entire study period. The food and water were changed twice per week. The identification labels for each cage contain the following information: number of animals, sex, strain, and date received treatment, study number, group number, and the starting date of the treatment. Animals were marked by ear coding. The experiments started one week after receiving the animals.
# (§3) Each mouse were inoculated subcutaneously at the right flank region with NCI-H2122 tumor cells (5×10^7/ml), NCI-H1703 tumor cells (1×10^8/ml) and A431 tumor cells (5×10^7/ml), respectively in a mixture of phosphate-buffered saline and matrigel for tumor development via a 1 ml syringe. The treatments were started when the mean tumor size reached about 200 (150-250) mm^3.
# (§4) To avoid errors between groups, the animals were first grouped by the tumor volumes according to the tumor volume measurements, and then randomly re-assigned to different groups.
# (§5) During the study, the care and use of animals were conducted in accordance with the regulations of the Association for Assessment and Accreditation of Laboratory Animal Care (AAALAC). After tumor cell inoculation, the animals were checked daily for morbidity and mortality. At the time of routine monitoring, the animals were checked for any effects of tumor growth and treatments on normal behavior such as mobility, visual estimation of food and water consumption, body weight gain/loss, eye/hair matting and any other abnormal effect.
# (§6) After tumor volume reached 3000 mm^3 or average tumor volume reached 2000 mm^3, before experimental animals emaciated or coma, anesthesia and euthanasia will be performed. During the experiment, if the weight loss of experimental animal reaches 20%, administration will be discontinued and experimental animals will be observed until the weight returned to 10% range before restart of the administration. In this experiment, when the mean tumor volume reached 2000 mm^3 or at the end of 59 days after the administration, experimental animals will be anesthesiaed to collect tumor mass which will be weighed and photographed.
# (§7) • 8.1 Tumor size was measured twice weekly in two dimensions using a caliper, and the volume was expressed in mm^3 using the formula: V=0.5 a×b^2 where a and b are the long and short diameters of the tumor, respectively. • 8.2 T/C, percent value, T and C were the mean volume of the treated and control groups, respectively, on a given day. • 8.3 T−C, calculated with T as the time (in days) required for the mean tumor size of the treatment group to reach a predetermined size, and C was the time (in days) for the mean tumor size of the control group to reach the same size. • 8.4 (1−((Td−T0)/(Cd−C0)))×100% value (in percent) was an indication of antitumor effectiveness, Td and Cd were the mean tumor volumes of the treated and vehicle control animals on a given day and T0 and C0 were the mean tumor volumes of the treated and vehicle control animals at the start of the experiment. • 8.5 Tumor mass weight was measured at the end of study. 9. Statistical Analysis
# (§8) A one-way analysis of variance was performed followed by multiple comparison procedures. […]
# [2] = tested on: NCI-H2122 lung cancer xenograft; assay type: in vivo, BALB/c nude mice
# Description: as §1, §2, §3, §4, §5, §6, §7, §8
# [3] = tested on: BXPC-3 human pancreatic carcinoma xenograft; assay: BXPC-3 xenograft tumor model, subcutaneous; assay type: in vivo, BALB/c nude mice
# Description: as §7
# A one-way analysis of variance was performed followed by multiple comparison procedures. All data was analyzed using SPSS 18.0. *p<0.05 or **P<0.01 are generally considered statistically significant when compared with vehicle group.
# BXPC-3 tumor cells cultured in RMPI1640 medium supplemented with 10% heat inactivated fetal bovine serum, all cells used EDTA containing trypsin, passaged twice a week, incubated at 37° C. in an atmosphere of 5% CO2 in air and cultured.
# BALB/c nude mice, female, 6-8 weeks old, 18-22 g in body weight, were purchased from Shanghai Laboratory Animal Center (SLAC, Shanghai, China).
# Each mouse was inoculated subcutaneously at the right flank region with BXPC-3 tumor cells (5×10^7) in 0.1 ml of phosphate-buffered saline with matrigel via a 1 ml syringe for tumor development. The treatments were started when the mean tumor size reaches approximately 200 (150-250) mm^3 at 9 days after inoculation.
# Randomized grouping, observations, aseptic, data processing, measurement and statistical analysis are as described in Example 3.
# [4] = Pharmacokinetic study of jervine in mice; assay type: in vivo; settings: CD-1 mice, PO 10 mg/Kg
# Description: Orally dosed: A total of 3 male experimental CD-1 mice, approximately 8 weeks of age at receipt was administered jervine via oral gavage at 10 mg/kg. Blood samples (300 μL) were collected via cardiac puncture predose and at 2 minute, 5 minute, 15 minute, 0.5 hour, 1 hour, 2 hour, 4 hour, 8 hour, 24 hours postdose. Plasma was made form the blood samples in order to measure the concentration of jervine.
# MTD study of jervine = assay type: in vivo, BALB/c nude mice; settings: 14 days
# Description: 9 BALB/c nude mice were divided equally into 3 groups. The mice were orally dosed at 50 mg/kg, 80 mg/kg and 150 mg/kg by groups. […] It was initially determined that the MTD is higher than 80 mg/kg for BALB/c nude mice.
structure (smiles),measurement,setting,value
CC1=C2C(=O)[C@H]3[C@@H](CC=C4C[C@@H](O)CC[C@@]43C)[C@@H]2CC[C@]12O[C@@H]1C[C@H](C)CN[C@H]1[C@H]2C [jervine],pIC50,[1],7.30
same,T/C value,"A431 xenograft; A431, 40 mg/kg p.o. QD × 21 days",0.52
same,T/C value,"A431 xenograft; A431, 60 mg/kg p.o. QD × 21 days",0.80
same,T/C value,"A431 xenograft; A431, 80 mg/kg p.o. QD × 21 days",0.82
same,T/C value,"[2]; NCI-H2122, 40 mg/kg p.o. QD × 21 days",0.79
same,T/C value,"[2]; NCI-H2122, 60 mg/kg p.o. QD × 21 days",0.701
same,T/C value,"[2]; NCI-H2122, 80 mg/kg p.o. QD × 21 days",0.594
same,T/C value,"[3]; BXPC-3, 20 mg/kg iv QD × 21 days",25.8%
same,T/C value,"[3]; BXPC-3, 40 mg/kg iv QD × 21 days",59.1%
same,T/C value,"[3]; BXPC-3, 80 mg/kg iv QD × 21 days",54.2%
same,tumor growth inhibition (in words),[3]; BXPC-3 xenograft,significantly inhibit the growth of these three tumors; also recorded: effectively inhibit the tumor growth
same,side effects / weight loss of the mice,"[3]; BXPC-3 xenograft, during administration",no obvious side effects such as weight lose was observed; also recorded: no significant of weight lose
same,F (bioavailability),[4],41.2%
same,mortality,MTD study of jervine; 50 mg/kg oral,no animal dead
same,general condition of the mice,MTD study of jervine; 80 mg/kg oral gavage,all mice were in good condition
same,weight loss,MTD study of jervine; 80 mg/kg oral gavage,no significant weight loss
same,mortality,MTD study of jervine; 80 mg/kg oral,no animal die
same,mortality,"MTD study of jervine; 80 mg/kg oral, listed as Jervine",no animal dead
same,mortality,MTD study of jervine; 150 mg/kg oral,Two mice in the 150 mg/kg treatment group were dead
